Results on eleven compounds are retold here after patent US4542153A, “Methods for changing calcium metabolism within the cells of a mammal” (The Ohio State University Research Foundation, priority 1983, dated 1985).

Read-outs that look alike come from different tables or passages of the source.

The test system of series [1] is thoracic aorta strips contracted with norepinephrine. The experiment in a line: Vasodilator activity: norepinephrine-contracted aortic strips. Conditions: for IC50: read-out: IC50 (mean and range of SEM) Norepinephrine; for comparative vasodilator activity, norepinephrine-treated tissue: norepinephrine-treated aortic tissue; for relaxation of the aortic tissue: norepinephrine- or KCl-treated tissue. Format: cell-based, male Sprague-Dawley rats. The text has this: (§1) Pr-MDI, bu-MDI, Q-bu-MDI and the compounds of Formulae IIIA, IIIB and IVA having the two R1 groups together forming a methylene group, each R3 a methyl group and R2 an n-propyl group or n-butyl group (the compounds of Formula III are hereinafter abbreviated as sat-pr-MDI and sat-bu-MDI respectively, reference being made where necessary to the cis isomer of Formula III A or the trans isomer of Formula III B while the compounds of Formula IV are similarly referred to as cis sat-Q-pr-MDI and cis sat-Q-bu-MDI) were tested for vasodilator activity by the method of R. F. Furchgott and S. Bhadrakom, J. P. Pharmacol. Ex. Ther., 108, 129-143 (1953).
(§2) The vasodilator activity tests were conducted on male Sprague-Dawley rats, obtained from Harlan Industries, Inc., Cumberland, Indiana. The rats, weight 250-300 g., were sacrified by cervical dislocation and a 2.5 cm. segment of the thoracic aorta was removed and rinshed in physiological buffer. Each aortic segment was cleaned of connective tissue and cut spirally two yield to strips, each 3 by 15 mm. Each strip was mounted isometrically under a tension of 1 g in a 10 ml. tissue bath thermostatically maintained at 37° C. and containing a normal physiological solution aerated with a 95% oxygen/5% carbon dioxide mixture. Forces generated by the strip were monitored using a Grass FT03 isometric transducer coupled to a Grass module 7D polygraph recorder, both the transducer and the recorder being obtained from Grass Instrument Co., of Quincy, Mass.
(§3) After the aortic tissue had been allowed to equilibriate for 1-1.5 hours in the normal physiologic solution, tissue contraction was induced by introducing either 10^-7 M norepinephrine or 40mM potassium chloride buffer to the tissue bath.
(§4) To avoid interference by loss of tension due to time dependent tissue fatigue, separate preliminary experiments were performed to determine the degree of tissue relaxation due to such fatigue and the value of the control tension generated by norepinephrine or potassium chloride prior to the addition of the test compounds was adjusted whenever the duration of the experiment was such that fatigue could be expected to cause more than a 6% loss of tension. […] All concentrations mentioned hereinafter represent the final concentration of the test compound after dilution in the tissue bath.
(§5) The figures of concentration against percent response data obtained from each aortic tissue were transformed to its appropriate probit value and IC50 values were then estimated using linear regression analysis. The normal physiological solution contained 6.9 g/l of sodium chloride, 0.35 g/l of potassium chloride, 0.11 g/l of magnesium chloride hexahydrate, 0.138 g/l of sodium dihydrogen phosphate, 2.1 g/l of sodium bicarbonate, 0.01 g/l of EDTA, 0.368 g/l of calcium chloride dihydrate and 2.0 g/l of dextrose. The high potassium buffers were obtained by substituting potassium chloride for sodium chloride on an equimolar basis to maintain tonicity.

For series [2], the system named is thoracic aorta strips contracted with potassium chloride. The experiment in a line: Vasodilator activity: potassium chloride-contracted aortic strips. Conditions: for IC50: read-out: IC50 (mean and range of SEM) KCl; for comparative vasodilator activity, potassium chloride-treated tissue: KCl-treated aortic tissue. Format: cell-based, male Sprague-Dawley rats.
Excerpt: as §1, §2, §3, §4, §5

In a further series the test system is isolated left atria. Briefly: Effects on isolated guinea pig atria: electrically driven left atria. Format: cell-based. From the text: The effects of pr-MDI, bu-MDI and Q-bu-MDI on the mechanical and electrical behavior of isolated guinea pig atria were investigated by the method of H. Nawrath, J. Pharmacol. Exp. Ther., 16, 176-182 (1980). The compounds were investigated over the concentration range of 10^-8 to 3×10^-4 M.
English short-haired guinea pigs, supplied by Carr Animal Supply, of Powell, Ohio, weighing 300-600 g. were killed by a blow on the head and both atria of the animal were quickly dissected out and suspended in a water-jacketed organ bath containing Krebs-Henseleit solution through which a 95% oxygen/5% carbon dioxide mixture was bubbled at 32° C. The solution contained 6.92 g/l of sodium chloride, 0.35 g/l of potassium chloride, 0.29 g/l of magnesium […] heptahydrate, 0.3 g/l of calcium chloride dihydrate, 0.16 g/l of potassium dihydrogen phosphate, 2.1 g/l of sodium bicarbonate and 2.1 g/l of dextrose. The contractile force generated by the isolated artria was recorded isometrically under a 500 mg. preload using a Narco Biosystems force transducer connected to a physiograph DMP-4B recorder, both the transducer and the recorder being obtained from E & M Instrument Co. of Houston, Texas.
The isolated left atria were electrically driven by square wave impulses of 3 milliseconds duration at a frequency of 3 Hz. and a voltage of twice the threshold voltage, delivered by a Grass S9 stimulator obtained from Grass Instrument Co., of Quincy, Massachusetts. Two platinum electrodes were used for the stimulation, the anode being in direct contact with the atrial tissue while the cathode had the form of a ring suspended 2.5 centimeters above the anode. Before redetermination of the threshold voltage and generation of a predrug (control) frequency-force profile over the range of 1-5 Hz., an equilibriation time of one hour was allowed. The system was then re-equilibriated at 3 Hz. and twice the threshold voltage as before, then one cumulative dose-response curve of contractile force for one test compound was obtained, followed immediately by redetermination of the threshold voltage and the generation of a post-drug frequency-force profile.
A paired Student's t-test was used to compare predrug and postdrug threshold voltages for each left atrial preparations as well as to compare developed tension at each frequency in the profile of each left atrial preparation. P values of less than 0.05 were considered statistically significant.

The subject of another series is mice. The experiment in a line: Toxicity Tests (intraperitoneal LD50). Format: in vivo. The settings on record: i.p., table: mean values and 95% confidence limits.
Series [3] relates to chloroform anoxia arrhythmia in mice. Briefly: Chloroform Anoxia Assay (chloroform-induced ventricular fibrillation). Conditions: for ED50: i.p., 10 min before chloroform, table: mean values and 95% confidence limits. Format: in vivo, Female Swiss albino mice. As to the method:
The same four compounds were tested for their ability to protect mice from chloroform anoxia by the classical chloroform inhalation procedure described in Lawson J. W.: Antiarrhythmic activity of some isoquinoline derivatives determined by a rapid screening procedure in the mouse, J. Pharmacol. Exp. Ther. 160: 22-31, (1968). In this method, chloroform inhalation leading to respiratory arrest produces ventricular fibrillation. Female Swiss albino mice procured from Laboratory Supply Company, Indianapolis, Indiana, weighing 16-22 g, were pretreated intraperitoneally with the compound under test dissolved in a 5% dextrose solution 10 minutes before exposure to chloroform in a closed container containing chloroform-saturated cotton. The mice were removed from the chloroform atmosphere immediately after respiratory arrest and the electrocardiograph lead II monitored. The ED 50 and 95% confidence limits calculated for the anti-arrhythmic agents by the standard method of Litchfield and Wilcoxon.

The conditions of series [4]: tested acutely and subchronically; earlier published work; cited from earlier work.
Series [5] relates to calcium-induced arrhythmias in rats. Briefly: Calcium-induced arrhythmias (CaCl2 injected i.v. into anesthetized rats). From the text:
The experimental method used was that described in Lynch J. J., Rahwan R. G., Witiak D. T.: Effects of 2-substituted-3-dimethylamino-5,6-methylenedioxyindenes on calcium-inducedarrhythmias, J. Cardiovasc. Pharmacol. 3: 49-60 (1981). Male Sprague-Dawley rats weighing 180-250 grams were anesthetized with sodium pentobarbital and a cannula was inserted into the left jugular vein for drug administration. Electrocardiograph equipment was connected to the rat and the lead II was continuously monitored. The compound under test, dissolved in 5% dextrose solution, was administered into the jugular vein of anesthetized rats over a 40 second period. Ten minutes after this treatment, an acute dose of 1 ml/kg of a 10% CaCl2.2H2 O solution was injected into the jugular vein over a period of 10 seconds. The arrhythmias resulting from the calcium administration were graded according to the following criteria: (a) initial change in heart rate following calcium administration; (b) incidences of sinoatrial block, atrioventricular block, ectopic beats, and ventricular flutter and fibrillation; (c) time required for reversion to control ECG; and (d) incidence of mortality.

Where [6] appears, read: rat aorta contracted with 10^-7 M norepinephrine.
Setting [7] is: rat aorta contracted with 40 mM potassium chloride.

`CCCC[C@@H]1Cc2cc3c(cc2[C@@H]1[N+](C)(C)C)OCO3` (relative stereo) [cis sat-Q-bu-MDI]: the IC50 was 281 µM in series [1] (setting [6]) and 175 µM in series [2] (setting [7]).
Turning to `CCC[C@@H]1Cc2cc3c(cc2[C@@H]1[N+](C)(C)C)OCO3` (relative stereo) [cis sat-Q-pr-MDI, cis-2-propyl-5,6-methylenedioxyindane-1-trimethylammonium iodide], the figures for the IC50 in series [1] (setting [6]) and in series [2] (setting [7]) were 1020 µM and 871 µM, respectively.
As to `CCCC[C@@H]1Cc2cc3c(cc2[C@@H]1N(C)C)OCO3` (relative stereo) [cis sat-bu-MDI, 2-butyl-5,6-methylenedioxyindane-1-dimethylammonium chloride], the IC50 in series [1] (Rattus norvegicus) stood at 37.9 µM; in series [2] (Rattus norvegicus), 17.4 µM. Further, the “comparative vasodilator activity, norepinephrine-treated tissue” value in series [1] is “greater activity on norepinephrine treated tissue than the corresponding butyl compound of Formula I”. For the same compound, the “comparative vasodilator activity, potassium chloride-treated tissue” value in series [2] is “substantially the same activity”.
The matching figures for `CCC[C@@H]1Cc2cc3c(cc2[C@@H]1N(C)C)OCO3` (relative stereo) [cis sat-pr-MDI, 2-propyl-5,6-methylenedioxyindane-1-dimethylammonium chloride]: 59.4 µM, 30 µM, “substantially the same activity as the corresponding unsaturated propyl compound of Formula I” and “slightly lower activity”.
Regarding `CCCC[C@H]1Cc2cc3c(cc2[C@@H]1N(C)C)OCO3` (relative stereo) [trans sat-bu-MDI], the values for the IC50 in series [1] (Rattus norvegicus) and in series [2] (Rattus norvegicus) were 151 to 173 µM and 31.1 µM, respectively.
With `CCC[C@H]1Cc2cc3c(cc2[C@@H]1N(C)C)OCO3` (relative stereo) [trans sat-pr-MDI, 2-propyl-5,6-methylenedioxyindane-1-dimethylammonium chloride], the IC50 in series [1] (Rattus norvegicus) stood at 383 µM; in series [2] (Rattus norvegicus) it was 98.9 µM.
On to `CCCC1=Cc2cc3c(cc2C1[N+](C)(C)C)OCO3.[I-]` (stereo not drawn) [Q-pr-MDI, 2-propyl-5,6-methylenedioxyindene-1-trimethylammonium iodide], for which, in series [1], the “relaxation of the aortic tissue” value is reported as “relaxed the aortic tissue” and the “comparative vasodilator activity, norepinephrine-treated tissue” value was “less active in vitro than their tertiary analogs”. In series [1] (setting [6]), the IC50 worked out at 382 µM. For the same compound, in series [2] (setting [7]), the IC50 was 547 µM.
With `NC[C@H](O)c1ccc(O)c(O)c1` [norepinephrine, reference compound], the “control tension as percent of the maximum inducible contraction” value in series [1] (10^-7 M norepinephrine) is reported as 85.1%. In series [1] (10^-7 M norepinephrine, rat aortic strip), this compound returned a control tension generated of 0.98 ± 0.03 g.
For `[Cl-].[K+]` [potassium chloride, reference compound], the “control tension as percent of the maximum inducible contraction” value in series [2] (40 mM potassium chloride) turned out to be 84.2%. This compound came in with a control tension generated in series [2] (40 mM potassium chloride, rat aortic strip) of 0.89 ± 0.05 g.
Regarding `CCCC1=Cc2cc3c(cc2C1N(C)C)OCO3.Cl` (stereo not drawn) [pr-MDI, 2-propyl-5,6-methylenedioxyindene-1-dimethylammonium chloride, reference compound], the “relaxation of the aortic tissue” value in series [1] is recorded as “relaxed the aortic tissue”. Moreover, in series [1], the “comparative vasodilator activity, norepinephrine-treated tissue” value is “considerably more active than Q-pr-MDI”. Further, the IC50 in series [1] (setting [6]) stood at 78.2 µM; in series [2] (setting [7]), 21.4 µM. The “effect on frequency-force profile/relation of the stimulated left atrium” value in the series on isolated left atria (3×10^-4 M) is listed as “virtually identical to that of the butyl homolog”. Also, the “overall effect on mechanical and electrical behavior of atria” value with isolated left atria (10^-8 to 3×10^-4 M) was “generally similar to those of bu-MDI”. For the same compound, the LD50 with mice is on record as 185 mg/kg. In addition, the “Therapeutic Index (LD50/ED50)” value in series [3] (ED50 from chloroform anoxia, LD50 i.p.) is recorded as 2.7. For the same compound, the “potency against chloroform/anoxia-induced arrhythmia versus quinidine” value in series [3] (earlier work of applicants) is given as “as potent as quinidine”. Also, the ED50 in series [3] (n = 40, 10 min) is listed as 68 mg/kg; in series [3] (n = 40, listed as Pr--MDI, 10 min) it was 68.0 mg/kg. The “Antiarrhythmic Potency” value in series [3] (quinidine = 1.00, chloroform anoxia) was 0.99. In addition, the toxicity result in series [4] is given as “remarkable lack of toxicity”. For the same compound, the “potency and safety against calcium-induced arrhythmia versus verapamil” value in series [5] (earlier work of applicants) was “more potent and safer then verapamil”. Also, the “concentration effective against calcium-induced arrhythmias” value in series [5] (i.v., 10 min before CaCl2) stood at 3.75 mg/kg. In addition, in series [5] (i.v., Q-bu-MDI at 0.5 mg/kg, pr-MDI and bu-MDI at 3.75 mg/kg), the deleterious side effects result is reported as “without deleterious side effects”.
As to `C=C[C@H]1C[N@@]2CC[C@H]1C[C@@H]2[C@@H](O)c1ccnc2ccc(OC)cc12` [quinidine, reference compound], the ED50 in series [3] (Mus musculus, ip, 10 min, n = 40, read-out: ED50) was determined as 67 mg/kg. In addition, the “effect on the S wave” value in series [5] (8 mg/kg (minimum effective concentration)) is on record as “severely deepened the S wave”.

The IC50 is the point on the concentration scale where inhibition reaches its midpoint. For orientation: LD50 means the dose expected to kill half of the subjects tested. Low values mean a more toxic substance, high ones a less toxic substance. For orientation: ED50 means the dose at which the effect has come halfway, by size or by number of responders.
